# Assay results reported in PubChem BioAssay AID244 (DTP/NCI, 2004).
# Values joined by “and” are separate entries in the source; they are usually repeats but may differ in a detail not shown here. Equal values may be shown once. Results filed as inconclusive are left out.
# Tested on: CD2F1 mice, Lymphoma 8 ip, survival T/C
# Experiment: NCI In Vivo Anticancer Drug Screen. Data for tumor model Lymphoma 8 (intraperitoneal) in CD2F1 (CDF1) mice
# Details: higher = longer survival
# Method: The antitumor activity of compounds was measured in mice bearing transplantable tumors. Survival or tumor size were measured and the results are expressed as the measurement made in the treated group (T) divided by the measurement made in the vehicle treated control group (C). The tumor model used in this assay is Lymphoma 8 (intraperitoneal) in CD2F1 (CDF1) mice
# [1] = endpoint: median survival time, dose: 60.0 mg/kg/injection, schedule: Q04DX002 (ip), vehicle: saline
# [2] = endpoint: median survival time, dose: 12.5 mg/kg/injection, schedule: Q01DX005 (ip), vehicle: saline
# [3] = endpoint: median survival time, dose: 25.0 mg/kg/injection, schedule: Q01DX005 (ip), vehicle: saline
# [4] = endpoint: median survival time, dose: 50.0 mg/kg/injection, schedule: Q01DX005 (ip), vehicle: saline
# [5] = endpoint: median survival time, dose: 100.0 mg/kg/injection, schedule: Q01DX005 (ip), vehicle: saline
# [6] = endpoint: median survival time, dose: 200.0 mg/kg/injection, schedule: Q01DX005 (ip), vehicle: saline
# [7] = endpoint: median survival time, dose: 400.0 mg/kg/injection, schedule: Q01DX005 (ip), vehicle: saline
smiles,measurement,setting,value
N=[N+]=CC(=O)CCC(NC(=O)C(CCC(=O)C=[N+]=N)NC(=O)CCC(N)C(=O)O)C(=O)O (centres undefined),T/C,"endpoint: median survival time, dose: 0.31 mg/kg/injection, schedule: Q04DX002 (ip), vehicle: saline",111 % of control
same,T/C,"endpoint: median survival time, dose: 0.63 mg/kg/injection, schedule: Q04DX002 (ip), vehicle: saline",107 % of control
same,T/C,"endpoint: median survival time, dose: 1.25 mg/kg/injection, schedule: Q04DX002 (ip), vehicle: saline",115 % of control
same,T/C,"endpoint: median survival time, dose: 2.5 mg/kg/injection, schedule: Q01DX006 (ip), vehicle: saline",121 % of control
same,T/C,"endpoint: median survival time, dose: 10.0 mg/kg/injection, schedule: Q01DX006 (ip), vehicle: saline",121 % of control
same,T/C,"endpoint: median survival time, dose: 10.0 mg/kg/injection, schedule: Q04DX002 (ip), vehicle: saline",169 % of control
same,T/C,"endpoint: median survival time, dose: 20.0 mg/kg/injection, schedule: Q01DX001 (ip), vehicle: saline",107 % of control
same,T/C,"endpoint: median survival time, dose: 20.0 mg/kg/injection, schedule: Q04DX002 (ip), vehicle: saline",153 % of control
same,T/C,"endpoint: median survival time, dose: 40.0 mg/kg/injection, schedule: Q04DX002 (ip), vehicle: saline",180 % of control
same,T/C,"endpoint: median survival time, dose: 40.0 mg/kg/injection, schedule: Q04DX003 (ip), vehicle: saline",169 % of control
same,T/C,"endpoint: median survival time, dose: 60.0 mg/kg/injection, schedule: Q01DX001 (ip), vehicle: saline",107 % of control
same,T/C,[1],180 % of control
same,T/C,"endpoint: median survival time, dose: 60.0 mg/kg/injection, schedule: Q04DX003 (ip), vehicle: saline",176 % of control
same,T/C,"endpoint: median survival time, dose: 80.0 mg/kg/injection, schedule: Q01DX006 (ip), vehicle: saline",171 % of control
same,T/C,"endpoint: median survival time, dose: 80.0 mg/kg/injection, schedule: Q04DX003 (ip), vehicle: saline",188 % of control
CN(C)C(=O)/N=N/C(=O)N(C)C,T/C,[2],95 % of control and 96 % of control and 98 % of control
same,T/C,[3],90 % of control and 92 % of control and 96 % of control
same,T/C,[4],90 % of control and 91 % of control and 104 % of control
same,T/C,[5],88 % of control and 90 % of control (2×)
O=CC(S)CO (centres undefined),T/C,"endpoint: median survival time, dose: 25.0 mg/kg/injection, schedule: Q01DX010 (ip), vehicle: saline",92 % of control
same,T/C,"endpoint: median survival time, dose: 50.0 mg/kg/injection, schedule: Q01DX010 (ip), vehicle: saline",92 % of control
same,T/C,"endpoint: median survival time, dose: 100.0 mg/kg/injection, schedule: Q01DX010 (ip), vehicle: saline",100 % of control
CN1C(=O)C=CC1=O,T/C,"endpoint: median survival time, dose: 0.5 mg/kg/injection, schedule: Q01DX009 (ip), vehicle: saline",97 % of control and 102 % of control
same,T/C,"endpoint: median survival time, dose: 1.0 mg/kg/injection, schedule: Q01DX009 (ip), vehicle: saline",102 % of control and 103 % of control
same,T/C,"endpoint: median survival time, dose: 2.0 mg/kg/injection, schedule: Q01DX009 (ip), vehicle: saline",94 % of control and 100 % of control
same,T/C,"endpoint: median survival time, dose: 4.0 mg/kg/injection, schedule: Q01DX009 (ip), vehicle: saline",94 % of control
S=c1nc[nH]c2nc[nH]c12,T/C,"endpoint: median survival time, dose: 60.0 mg/kg/injection, schedule: Q01DX002 (ip), vehicle: saline",96 % of control
same,T/C,[1],107 % of control
same,T/C,"endpoint: median survival time, dose: 90.0 mg/kg/injection, schedule: Q01DX002 (ip), vehicle: saline",93 % of control
same,T/C,"endpoint: median survival time, dose: 90.0 mg/kg/injection, schedule: Q04DX002 (ip), vehicle: saline",107 % of control
same,T/C,"endpoint: median survival time, dose: 135.0 mg/kg/injection, schedule: Q01DX002 (ip), vehicle: saline",103 % of control
NC(=O)OCC(N)C(=O)O (centres undefined),T/C,[4],99 % of control and 100 % of control
same,T/C,[5],100 % of control
same,T/C,[6],88 % of control
same,T/C,[7],92 % of control and 94 % of control
NC(C(=O)O)C(F)(F)C(=O)O (centres undefined),T/C,"endpoint: median survival time, dose: 3.12 mg/kg/injection, schedule: Q01DX009 (ip), vehicle: saline",93 % of control
same,T/C,"endpoint: median survival time, dose: 6.25 mg/kg/injection, schedule: Q01DX009 (ip), vehicle: saline",97 % of control
same,T/C,"endpoint: median survival time, dose: 12.5 mg/kg/injection, schedule: Q01DX009 (ip), vehicle: saline",87 % of control and 89 % of control
same,T/C,"endpoint: median survival time, dose: 25.0 mg/kg/injection, schedule: Q01DX009 (ip), vehicle: saline",100 % of control
same,T/C,"endpoint: median survival time, dose: 50.0 mg/kg/injection, schedule: Q01DX009 (ip), vehicle: saline",107 % of control
CNC(=O)CC(N)C(=O)O (centres undefined),T/C,"endpoint: median survival time, dose: 75.0 mg/kg/injection, schedule: Q01DX005 (ip), vehicle: saline",96 % of control and 102 % of control
same,T/C,"endpoint: median survival time, dose: 150.0 mg/kg/injection, schedule: Q01DX005 (ip), vehicle: saline",107 % of control and 113 % of control
same,T/C,"endpoint: median survival time, dose: 300.0 mg/kg/injection, schedule: Q01DX005 (ip), vehicle: saline",93 % of control and 113 % of control
same,T/C,"endpoint: median survival time, dose: 600.0 mg/kg/injection, schedule: Q01DX005 (ip), vehicle: saline",95 % of control and 114 % of control
same,T/C,"endpoint: median survival time, dose: 1200.0 mg/kg/injection, schedule: Q01DX005 (ip), vehicle: saline",102 % of control
NC(CS(N)(=O)=O)C(=O)O (centres undefined),T/C,[4],92 % of control
same,T/C,[5],92 % of control
same,T/C,[6],96 % of control and 97 % of control
same,T/C,[7],92 % of control and 94 % of control
CN(Cc1cnc2nc(N)nc(N)c2n1)c1ccc(C(=O)N[C@@H](CCC(=O)O)C(=O)O)cc1,T/C,"endpoint: median survival time, dose: 0.75 mg/kg/injection, schedule: Q01DX005 (ip), vehicle: saline",188 % of control and 195 % of control
same,T/C,"endpoint: median survival time, dose: 1.5 mg/kg/injection, schedule: Q01DX005 (ip), vehicle: saline",161 % of control and 172 % of control
same,T/C,"endpoint: median survival time, dose: 3.0 mg/kg/injection, schedule: Q01DX005 (ip), vehicle: saline",53 % of control
C[C@H]1C(=O)O[C@@H]2CCN3CC=C(COC(=O)[C@](C)(O)[C@@]1(C)O)[C@H]23,T/C,"endpoint: survival time, mean or median, dose: 3.13 mg/kg/injection, schedule: Q01DX010 (ip), vehicle: saline",100 % of control
same,T/C,"endpoint: survival time, mean or median, dose: 6.25 mg/kg/injection, schedule: Q01DX010 (ip), vehicle: saline",100 % of control
same,T/C,"endpoint: survival time, mean or median, dose: 12.5 mg/kg/injection, schedule: Q01DX010 (ip), vehicle: saline",100 % of control
same,T/C,"endpoint: survival time, mean or median, dose: 25.0 mg/kg/injection, schedule: Q01DX010 (ip), vehicle: saline",100 % of control
NC(CC(=O)CCl)C(=O)O (centres undefined),T/C,"endpoint: median survival time, dose: 1.6 mg/kg/injection, schedule: Q01DX005 (ip), vehicle: saline",100 % of control
same,T/C,"endpoint: median survival time, dose: 3.13 mg/kg/injection, schedule: Q01DX005 (ip), vehicle: saline",92 % of control and 96 % of control and 108 % of control
same,T/C,"endpoint: median survival time, dose: 6.25 mg/kg/injection, schedule: Q01DX005 (ip), vehicle: saline",100 % of control and 103 % of control and 108 % of control
same,T/C,"endpoint: median survival time, dose: 12.5 mg/kg/injection, schedule: Q01DX001 (ip), vehicle: saline",100 % of control
same,T/C,[2],100 % of control and 103 % of control and 107 % of control
same,T/C,"endpoint: median survival time, dose: 25.0 mg/kg/injection, schedule: Q01DX001 (ip), vehicle: saline",100 % of control
same,T/C,[3],111 % of control and 114 % of control and 120 % of control
same,T/C,"endpoint: median survival time, dose: 50.0 mg/kg/injection, schedule: Q01DX001 (ip), vehicle: saline",108 % of control
same,T/C,[4],37 % of control
same,T/C,"endpoint: median survival time, dose: 100.0 mg/kg/injection, schedule: Q01DX001 (ip), vehicle: saline",91 % of control
N[C@H](C(=O)O)[C@@H]1CC(Cl)=NO1,T/C,"endpoint: median survival time, dose: 0.38 mg/kg/injection, schedule: Q01DX009 (ip), vehicle: saline",105 % of control
same,T/C,"endpoint: median survival time, dose: 0.75 mg/kg/injection, schedule: Q01DX009 (ip), vehicle: saline",115 % of control
same,T/C,"endpoint: median survival time, dose: 1.5 mg/kg/injection, schedule: Q01DX009 (ip), vehicle: saline",118 % of control
COc1cc2c(c3c1c(=O)c1ccccc1n3C)C=CC(C)(C)O2,T/C,"endpoint: median survival time, dose: 12.5 mg/kg/injection, schedule: Q01DX009 (ip), vehicle: Klucel (hydroxypropylcellulose) (HPC)",100 % of control
same,T/C,"endpoint: median survival time, dose: 25.0 mg/kg/injection, schedule: Q01DX009 (ip), vehicle: Klucel (hydroxypropylcellulose) (HPC)",100 % of control
same,T/C,"endpoint: median survival time, dose: 50.0 mg/kg/injection, schedule: Q01DX009 (ip), vehicle: Klucel (hydroxypropylcellulose) (HPC)",107 % of control
same,T/C,"endpoint: median survival time, dose: 100.0 mg/kg/injection, schedule: Q01DX009 (ip), vehicle: Klucel (hydroxypropylcellulose) (HPC)",96 % of control
C[C@]12C=CC(=O)C=C1CC[C@@H]1[C@@H]2C(=O)C[C@@]2(C)[C@H]1CC[C@]2(O)C(=O)CO,T/C,"endpoint: median survival time, dose: 12.5 mg/kg/injection, schedule: Q01DX005 (sc), vehicle: steriod suspending solution",105 % of control and 107 % of control and 108 % of control
same,T/C,"endpoint: median survival time, dose: 25.0 mg/kg/injection, schedule: Q01DX005 (sc), vehicle: steriod suspending solution",96 % of control and 104 % of control and 108 % of control
same,T/C,"endpoint: median survival time, dose: 50.0 mg/kg/injection, schedule: Q01DX005 (sc), vehicle: steriod suspending solution",96 % of control and 99 % of control and 100 % of control
same,T/C,"endpoint: median survival time, dose: 100.0 mg/kg/injection, schedule: Q01DX005 (sc), vehicle: steriod suspending solution",100 % of control and 103 % of control and 104 % of control
same,T/C,"endpoint: median survival time, dose: 200.0 mg/kg/injection, schedule: Q01DX005 (sc), vehicle: steriod suspending solution",111 % of control and 112 % of control
CC(=O)Nc1c(Cl)cc2c(c1Cl)Cc1cc([N+](=O)[O-])ccc1-2,T/C,"endpoint: survival time, mean or median, dose: 3.9 mg/kg/injection, schedule: Q01DX010 (ip), vehicle: saline",87 % of control
